Read-outs that look alike come from different tables or passages of the source.
How the values were obtained:
[1] = test system: mice; design: method as in PMID 16033285; conditions: s.c., PPQ abdominal stretching test, ref [30]; cited from earlier work
[2] = molecular target: T1, human MOP receptors (Homo sapiens, UniProt P35372); test: Calcium mobilization assay in CHOhMOP cells expressing Gαqi5; format: cell-based; design: expressed in transfected cells; host or cells: CHO cells stably co-expressing Gαqi5; conditions: for Emax: read-out: Calcium mobilization assay Emax
T1 sequence (P35372 whole entry): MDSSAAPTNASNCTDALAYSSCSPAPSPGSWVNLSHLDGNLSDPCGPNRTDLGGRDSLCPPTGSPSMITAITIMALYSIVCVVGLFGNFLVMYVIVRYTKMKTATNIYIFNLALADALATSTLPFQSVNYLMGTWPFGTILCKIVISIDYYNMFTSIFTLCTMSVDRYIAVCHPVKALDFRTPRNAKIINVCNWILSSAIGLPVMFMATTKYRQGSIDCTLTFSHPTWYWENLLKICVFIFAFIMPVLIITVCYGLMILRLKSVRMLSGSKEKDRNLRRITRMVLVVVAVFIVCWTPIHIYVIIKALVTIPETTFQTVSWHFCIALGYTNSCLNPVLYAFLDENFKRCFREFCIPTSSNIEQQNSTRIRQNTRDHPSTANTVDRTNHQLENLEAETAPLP

[3] = molecular target: T2, KOP receptor (Rattus norvegicus, UniProt P34975); conditions: cited from earlier work; for Ki: read-out: Ki KOP
T2 construct: from tissue; host or cells: Sprague-Dawley rat brain membranes
T2 sequence (P34975 whole entry): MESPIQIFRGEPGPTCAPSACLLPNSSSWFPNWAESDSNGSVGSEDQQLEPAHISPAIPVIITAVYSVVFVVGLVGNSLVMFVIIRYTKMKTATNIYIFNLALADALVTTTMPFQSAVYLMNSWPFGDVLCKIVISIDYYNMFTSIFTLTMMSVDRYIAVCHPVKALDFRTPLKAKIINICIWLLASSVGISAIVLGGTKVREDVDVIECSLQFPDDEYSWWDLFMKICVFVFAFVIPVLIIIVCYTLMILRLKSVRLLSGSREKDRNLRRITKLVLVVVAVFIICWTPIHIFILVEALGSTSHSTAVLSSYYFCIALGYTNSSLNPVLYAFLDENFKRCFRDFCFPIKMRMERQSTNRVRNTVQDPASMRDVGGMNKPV

[4] = molecular target: T1, human MOP receptors; test: [35S]GTPγS functional assay in CHOhMOP cell membranes; format: biochemical; design: expressed in transfected cells; host or cells: CHO cells; conditions: for Emax: read-out: [35S]GTPγS functional assay Emax
[5] = test system: mice; design: method as in PMID 16033285; conditions: s.c., hot-plate test, ref [30]; cited from earlier work
[6] = test system: mice; design: method as in PMID 16033285; conditions: s.c., tail-flick test, ref [30]; cited from earlier work
[7] = molecular target: T3, MOP receptor (Rattus norvegicus, UniProt P33535); conditions: read-out: Ki MOP; cited from earlier work
T3 construct: from tissue; host or cells: Sprague-Dawley rat brain membranes
T3 sequence (P33535 whole entry): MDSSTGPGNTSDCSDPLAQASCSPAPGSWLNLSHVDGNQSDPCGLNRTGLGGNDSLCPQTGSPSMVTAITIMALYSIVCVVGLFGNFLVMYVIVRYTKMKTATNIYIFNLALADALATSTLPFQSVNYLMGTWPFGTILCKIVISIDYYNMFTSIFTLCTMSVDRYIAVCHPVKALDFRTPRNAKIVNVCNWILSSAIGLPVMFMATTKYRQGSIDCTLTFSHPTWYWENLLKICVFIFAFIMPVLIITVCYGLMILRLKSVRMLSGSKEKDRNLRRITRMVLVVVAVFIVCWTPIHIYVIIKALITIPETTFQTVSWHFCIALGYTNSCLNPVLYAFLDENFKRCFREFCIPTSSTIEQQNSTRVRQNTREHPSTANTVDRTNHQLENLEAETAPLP

[8] = molecular target: T4, DOP receptor (Rattus norvegicus, UniProt P33533); conditions: cited from earlier work; for Ki: read-out: Ki DOP
T4 construct: from tissue; host or cells: Sprague-Dawley rat brain membranes
T4 sequence (P33533 whole entry): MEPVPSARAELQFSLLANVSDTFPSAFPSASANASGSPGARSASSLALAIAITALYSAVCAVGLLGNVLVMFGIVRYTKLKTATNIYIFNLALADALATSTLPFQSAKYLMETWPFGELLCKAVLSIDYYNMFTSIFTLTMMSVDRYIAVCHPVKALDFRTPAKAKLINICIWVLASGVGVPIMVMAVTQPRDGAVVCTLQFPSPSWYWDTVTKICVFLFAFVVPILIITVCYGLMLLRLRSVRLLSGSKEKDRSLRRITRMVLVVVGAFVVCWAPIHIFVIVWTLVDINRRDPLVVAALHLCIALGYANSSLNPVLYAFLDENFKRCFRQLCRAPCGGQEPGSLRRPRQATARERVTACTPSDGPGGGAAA

[9] = test system: mice; test: Tail-flick test; format: in vivo; conditions: s.c.; for ED50: Mus musculus, sc, 20 min, tail-flick test, 20 min after dosing, read-out: ED50 (95% CL) TF
[10] = molecular target: T5, human KOP receptors (CHOhKOP) (Homo sapiens, UniProt P41145); test: Binding assay in CHOhKOP cell membranes ([3H]diprenorphine)
T5 construct: expressed in transfected cells
T5 sequence (P41145 whole entry): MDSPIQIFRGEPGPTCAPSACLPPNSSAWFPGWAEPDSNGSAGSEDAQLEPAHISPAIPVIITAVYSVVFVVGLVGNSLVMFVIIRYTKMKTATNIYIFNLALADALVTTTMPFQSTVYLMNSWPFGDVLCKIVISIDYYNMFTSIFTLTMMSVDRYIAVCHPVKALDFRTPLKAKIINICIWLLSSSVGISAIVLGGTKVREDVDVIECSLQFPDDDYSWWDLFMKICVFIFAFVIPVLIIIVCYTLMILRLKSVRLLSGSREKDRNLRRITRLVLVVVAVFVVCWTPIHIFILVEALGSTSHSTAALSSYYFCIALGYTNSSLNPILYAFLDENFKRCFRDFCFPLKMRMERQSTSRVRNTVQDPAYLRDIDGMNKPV

[11] = test system: mice; test: PPQ abdominal stretching test; format: in vivo; conditions: for ED50: Mus musculus, sc, PPQ abdominal stretching test, read-out: ED50 (95% CL) PPQ; for Times more active than oxycodone (antinociceptive potency): maximum over hot-plate, tail-flick and PPQ assays
[12] = test system: mice; test: Hot-plate test; format: in vivo; conditions: s.c.; for ED50: Mus musculus, sc, 0.5 h, hot-plate test, 30 min after dosing, read-out: ED50 (95% CL) HP
[13] = molecular target: T6, recombinant rat MOP receptor expressed in C6 glioma cells (Rattus norvegicus, UniProt P33535); test: Binding assay in C6rMOP cell membranes ([3H]diprenorphine)
T6 construct: expressed in transfected cells
T6 sequence (P33535 whole entry): as the sequence (P33535 whole entry) above

[14] = molecular target: T7, rat DOP receptors (C6rDOP) (Rattus norvegicus, UniProt P33533); test: Binding assay in C6rDOP cell membranes ([3H]diprenorphine)
T7 construct: expressed in transfected cells
T7 sequence (P33533 whole entry): as the sequence (P33533 whole entry) above

[15] = molecular target: T3, MOP receptor; test: Radioligand binding assay, MOP receptor, rat brain membranes ([3H]DAMGO)
[16] = molecular target: T2, KOP receptor; test: Radioligand binding assay, KOP receptor, rat brain membranes ([3H]U69,593); conditions: for Selectivity ratio KOP/MOP: Ki ratio, rat brain membranes
[17] = molecular target: T4, DOP receptor; test: Radioligand binding assay, DOP receptor, rat brain membranes ([3H][Ile5,6]deltorphin II); conditions: for Selectivity ratio DOP/MOP: Ki ratio, rat brain membranes
[18] = test system: animals; conditions: ref [14]; cited from earlier work
[19] = test system: MOP receptor; design: method as in PMID 15857143; conditions: ref [13]; cited from earlier work
[20] = test system: C6rMOP cells (rat MOP receptor); design: method as in PMID 16291875; conditions: ref [36], read-out: Potency EC50; cited from earlier work
[21] = test system: human MOP receptor in CHO cells; design: method as in PMID 14600248; conditions: CHOhMOP, Thompson et al.; ref [35]; read-out: [35S]GTPγS binding EC50; cited from earlier work
[22] = test system: human MOP receptor; design: method as in PMID 22002663; conditions: HEK293 cells co-expressing human MOP receptor and Gαqi3, ref [37], cited from earlier work
[23] = absolute stimulation, set as 100%

SMILES | ED50 (95% CL) PPQ [1] | EC50 [2] | Times greater potency than oxycodone and 14-OMC, calcium mobilization ([2]; CHOhMOP Gαqi5 cells) | Emax [2] | Ki [3] | EC50 [4] | Emax [4] | ED50 (95% CL) HP [5] | ED50 (95% CL) TF [6] | Ki [8] | ED50 [9] | ED50 [11] | ED50 [12] | Ki [15] | Ki [16] | Selectivity ratio KOP/MOP [16] | Ki [17] | Selectivity ratio DOP/MOP [17] | other results
COc1ccc2c(c1O)C13C=C(C#N)CCC1(OC)C(C2)N(C)CC3 (stereo not shown) [compound 3] | 0.11 (0.072-0.16) mg/kg, s.c. | 140 ± 21 nM | up to 10 times | 61 ± 6% | 378 ± 155 nM | 26.2 ± 1.7 nM | 85 ± 3% | 0.25 (0.11-0.59) mg/kg, s.c. | 0.21 (0.11-0.40) mg/kg, s.c. | 197 ± 29 nM |  |  |  |  |  |  |  |  | Selectivity ratio KOP/MOP [3]: 70; Ki [7]: 5.38 ± 0.42 nM; Selectivity ratio DOP/MOP [8]: 37
COc1ccc2c(c1OC)C13C=C(C#N)C=CC1(OC)C(C2)N(C)CC3 (stereo not shown) [compound 5] |  | 21.7 ± 5.5 nM |  | 70 ± 8% |  | 1.64 ± 0.19 nM | 133 ± 7% |  |  |  | 0.04 mg/kg | 0.0023 mg/kg | 0.08 mg/kg | 0.54 ± 0.04 nM | 200 ± 40 nM | 370 | 30.3 ± 2.9 nM | 56 | Times more potent than DAMGO, calcium mobilization ([2]; CHOhMOP Gαqi5 cells): about 2 times; Ki [10]: 229 nM; MOP selectivity vs. KOP ([10]; recombinant receptors, CHOhKOP vs C6rMOP): 327 times; Times more active than oxycodone (antinociceptive potency) ([11]; s.c.): up to 165 times; Ki [13]: 0.7 nM; Ki [14]: 56 nM; MOP selectivity vs. DOP ([14]; recombinant receptors, C6rDOP vs C6rMOP): 80 times
COc1ccc2c3c1O[C@H]1C(=O)CC[C@@]4(OC)[C@@H](C2)N(C)CC[C@]314 [14-OMC, 14-O-methyloxycodone, reference compound] |  | 973 ± 204 nM |  | 72 ± 7% |  | 325 ± 94 nM | 137 ± 55% |  |  |  | 0.8 mg/kg | 0.22 mg/kg | 1.02 mg/kg | 35.3 ± 2.1 nM | 454 ± 6 nM | 13 | 116 ± 15 nM | 3 | 
COc1ccc2c(c1O)C13C=C(C#N)CCC1(O)C(C2)N(C)CC3 (stereo not shown) [compound 1] | 0.18 (0.076-0.42) mg/kg, s.c. | 957 ± 233 nM | up to 10 times | 57 ± 4% | 1650 nM | 273 ± 24 nM | 98 ± 4% | 0.50 (0.12-2.02) mg/kg, s.c. | 1.88 (1.25-2.83) mg/kg, s.c. | 498 ± 79 nM |  |  |  |  |  |  |  |  | 
C[C@@H](NC(=O)[C@@H](N)Cc1ccc(O)cc1)C(=O)NCC(=O)N(C)[C@@H](Cc1ccccc1)C(=O)NCCO [DAMGO, [D-Ala^2,Me-Phe^4,Gly-ol^5]enkephalin, reference compound] |  |  |  |  |  |  |  |  |  |  |  |  |  |  |  |  |  |  | Maximal DAMGO stimulation in calcium mobilization assay [2, 23]: 217 ± 21%; Maximal DAMGO stimulation in [35S]GTPγS functional assay [4, 23]: 225 ± 32%
COC12CCC(=O)C3Oc4c(O)ccc5c4C31CCN(C)C2C5 (stereo not shown) [14-O-methyloxymorphone] |  |  |  |  |  |  |  |  |  |  |  |  |  |  |  |  |  |  | Times more potent in inducing an antinociceptive effect than oxymorphone [18]: up to 40 times; Times increased binding affinity at the MOP receptor vs oxymorphone [19]: 9 times
COc1ccc2c3c1O[C@H]1C(=O)CC[C@@]4(O)[C@@H](C2)N(C)CC[C@]314 [Oxycodone, oxycodone, reference compound] | 0.38 (0.19-0.75) mg/kg, s.c. |  |  | 38 ± 3% |  |  | 92 ± 9% | 1.37 (0.48-3.92) mg/kg, s.c. | 0.94 (0.40-2.30) mg/kg, s.c. |  |  |  |  |  |  |  |  |  | EC50 [20]: 373 nM; EC50 [21]: 1400 nM; Efficacy, changes in intracellular calcium levels [22]: 100%; EC50 ([22]; read-out: Potency, changes in intracellular calcium levels): 1740 nM
COc1ccc2c3c1OC1C(C#N)=CCC4(OC)C(C2)N(C)CCC314 (stereo not shown) [compound 6] |  | 173 ± 21 nM | up to 10 times | 84 ± 10% |  | 25.1 ± 3.6 nM | 121 ± 27% |  |  |  | 0.12 mg/kg | 0.003 mg/kg | 0.089 mg/kg | 7.39 ± 0.34 nM | 194 ± 68 nM | 26 | 239 ± 40 nM | 32 | Times less potent than analogue 5, tail-flick [9]: 3 times; Times more potent than 14-OMC, tail-flick [9]: 7 times; Times more potent than analogue 3, tail-flick [9]: ~2 times; Times more potent than 14-OMC, PPQ ([11]; s.c.): 72 times; Times more potent than analogue 3, PPQ ([11]; s.c.): ~37 times; Times more active than oxycodone (antinociceptive potency) ([11]; s.c.): up to 165 times; Times more potent than 14-OMC, hot-plate [12]: 11 times; Times more potent than analogue 3, hot-plate [12]: ca. 3 times; Increase in binding to the MOP receptor vs 6-keto counterpart 14-OMC ([15]; rat brain membranes): about 5 times
COc1ccc2c(c1OC)C13C=C(C#N)CCC1(O)C(C2)N(C)CC3 (stereo not shown) [compound 2] | 0.026 (0.012-0.055) mg/kg, s.c. | 116 ± 9 nM | up to 10 times | 69 ± 7% | 364 ± 7 nM | 42.5 ± 14.9 nM | 97 ± 15% | 0.15 (0.054-0.41) mg/kg, s.c. | 0.12 (0.061-0.23) mg/kg, s.c. | 107 ± 5 nM |  |  |  |  |  |  |  |  | Selectivity ratio KOP/MOP [3]: 149; Ki [7]: 2.44 ± 0.13 nM; Selectivity ratio DOP/MOP [8]: 44
COc1ccc2c(c1OC)C13C=C(C(N)=O)CCC1(OC)C(C2)N(C)CC3 (stereo not shown) [compound 4] |  | 56.1 ± 11.3 nM |  | 59 ± 8% |  | 25.6 ± 9.5 nM | 107 ± 26% |  |  |  | 1.34 mg/kg | 0.18 mg/kg | 1.3 mg/kg | 1.61 ± 0.05 nM | 105 ± 45 nM | 65 | 28.8 ± 2.3 nM | 18 | Times less active than compound 1, hot-plate [12]: about 3 times

Source: article PMC4121618 (Molecular Pain, 2014)
